Laboratory results reported in the kinase profiling compilation of Christmann-Franck et al. (2016).

Tests used:
Test in all cases: KINOMEscan competition binding
Settings in all cases: compound 10.0 µM
[1] = target: ADCK3 (human) (UniProt Q8NI60)
[2] = target: JAK1 JH1 catalytic (human) (UniProt P23458)
[3] = target: TYK2 JH2 pseudokinase (human) (UniProt P29597)
[4] = target: ADCK4 (human) (UniProt Q96D53)
[5] = target: MAP3K12 (human) (UniProt Q12852)
[6] = target: MAST1 (human) (UniProt Q9Y2H9)
[7] = target: MAP3K4 (human) (UniProt Q9Y6R4)
Sequence of MAP3K4 (human) (Q9Y6R4 whole entry, looked up): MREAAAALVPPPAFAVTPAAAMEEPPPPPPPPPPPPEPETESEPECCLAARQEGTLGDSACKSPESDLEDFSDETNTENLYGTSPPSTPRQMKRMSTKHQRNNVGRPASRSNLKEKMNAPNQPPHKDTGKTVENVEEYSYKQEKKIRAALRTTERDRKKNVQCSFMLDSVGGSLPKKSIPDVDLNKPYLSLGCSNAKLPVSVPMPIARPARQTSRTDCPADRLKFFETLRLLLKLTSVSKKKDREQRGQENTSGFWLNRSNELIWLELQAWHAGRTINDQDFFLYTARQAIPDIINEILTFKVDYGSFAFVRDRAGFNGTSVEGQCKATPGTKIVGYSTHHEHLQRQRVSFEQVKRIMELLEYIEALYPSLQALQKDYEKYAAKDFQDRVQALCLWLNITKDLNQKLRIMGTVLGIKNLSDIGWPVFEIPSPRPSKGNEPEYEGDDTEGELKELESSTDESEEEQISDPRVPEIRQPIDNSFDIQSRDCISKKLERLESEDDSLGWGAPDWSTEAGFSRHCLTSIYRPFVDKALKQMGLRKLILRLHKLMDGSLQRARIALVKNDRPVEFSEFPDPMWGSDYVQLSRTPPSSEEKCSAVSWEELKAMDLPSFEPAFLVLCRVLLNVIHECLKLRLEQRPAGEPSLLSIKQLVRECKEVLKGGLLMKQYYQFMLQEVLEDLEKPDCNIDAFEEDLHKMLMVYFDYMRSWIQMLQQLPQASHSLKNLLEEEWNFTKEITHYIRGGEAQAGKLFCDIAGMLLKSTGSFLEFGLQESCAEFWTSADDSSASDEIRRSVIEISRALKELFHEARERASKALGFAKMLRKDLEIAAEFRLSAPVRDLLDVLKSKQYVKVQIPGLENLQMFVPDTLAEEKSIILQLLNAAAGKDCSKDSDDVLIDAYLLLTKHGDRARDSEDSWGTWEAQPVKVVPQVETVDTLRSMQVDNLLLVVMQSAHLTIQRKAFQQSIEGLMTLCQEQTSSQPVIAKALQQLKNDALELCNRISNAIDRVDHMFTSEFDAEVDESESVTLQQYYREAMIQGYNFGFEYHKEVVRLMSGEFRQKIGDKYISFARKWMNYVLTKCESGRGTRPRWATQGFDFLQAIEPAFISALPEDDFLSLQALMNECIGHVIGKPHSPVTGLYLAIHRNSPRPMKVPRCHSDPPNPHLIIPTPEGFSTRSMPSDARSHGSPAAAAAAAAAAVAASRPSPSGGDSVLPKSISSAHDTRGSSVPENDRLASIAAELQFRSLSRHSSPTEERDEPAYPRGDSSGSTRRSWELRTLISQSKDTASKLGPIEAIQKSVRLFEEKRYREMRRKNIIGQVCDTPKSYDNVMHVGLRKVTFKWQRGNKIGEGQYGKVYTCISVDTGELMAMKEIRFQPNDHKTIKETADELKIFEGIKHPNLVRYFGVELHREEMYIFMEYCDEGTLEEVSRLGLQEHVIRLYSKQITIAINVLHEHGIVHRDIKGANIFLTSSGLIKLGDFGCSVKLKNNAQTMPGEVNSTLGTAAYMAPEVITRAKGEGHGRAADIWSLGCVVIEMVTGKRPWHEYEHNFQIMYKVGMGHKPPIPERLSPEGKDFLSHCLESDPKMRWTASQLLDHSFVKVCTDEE

[8] = target: NEK7 (human) (UniProt Q8TDX7)
[9] = target: MAPK1 (human) (UniProt P28482)
[10] = target: GSK3B (human) (UniProt P49841)
[11] = target: SBK1 (human) (UniProt Q52WX2)
[12] = target: RIPK1 (human) (UniProt Q13546)
[13] = target: SRPK3 (human) (UniProt Q9UPE1)
[14] = target: BMPR2 (human) (UniProt Q13873)
[15] = target: NEK5 (human) (UniProt Q6P3R8)
[16] = target: CHUK (human) (UniProt O15111)
[17] = target: STK17A (human) (UniProt Q9UEE5)
[18] = target: MYLK4 (human) (UniProt Q86YV6)
[19] = target: TNNI3K (human) (UniProt Q59H18)
[20] = target: STK36 (human) (UniProt Q9NRP7)
[21] = tested on: KIT (human), P10721 [L576P]
[22] = target: TIE1 (human) (UniProt P35590)
[23] = target: MAP4K5 (human) (UniProt Q9Y4K4)
[24] = target: MARK3 (human) (UniProt P27448)
Sequence of MARK3 (human) (P27448 whole entry, looked up): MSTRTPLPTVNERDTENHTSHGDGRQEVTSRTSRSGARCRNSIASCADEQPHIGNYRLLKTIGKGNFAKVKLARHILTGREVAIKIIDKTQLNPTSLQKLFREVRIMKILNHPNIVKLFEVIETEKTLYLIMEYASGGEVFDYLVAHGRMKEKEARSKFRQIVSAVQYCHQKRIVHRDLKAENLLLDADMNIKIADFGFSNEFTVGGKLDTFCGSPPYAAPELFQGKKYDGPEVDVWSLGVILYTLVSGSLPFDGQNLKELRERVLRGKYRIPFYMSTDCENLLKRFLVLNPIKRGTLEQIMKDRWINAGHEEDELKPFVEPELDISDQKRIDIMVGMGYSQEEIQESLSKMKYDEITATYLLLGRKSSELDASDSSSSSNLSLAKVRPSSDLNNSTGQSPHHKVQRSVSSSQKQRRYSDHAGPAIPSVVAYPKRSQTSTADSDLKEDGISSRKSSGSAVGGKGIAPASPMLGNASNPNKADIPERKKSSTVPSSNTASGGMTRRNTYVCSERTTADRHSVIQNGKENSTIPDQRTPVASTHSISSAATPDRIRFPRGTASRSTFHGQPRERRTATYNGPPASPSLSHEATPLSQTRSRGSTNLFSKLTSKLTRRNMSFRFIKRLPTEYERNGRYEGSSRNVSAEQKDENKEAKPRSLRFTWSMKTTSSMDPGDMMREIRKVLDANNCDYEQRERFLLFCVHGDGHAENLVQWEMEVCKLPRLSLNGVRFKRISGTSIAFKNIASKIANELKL

[25] = tested on: KIT (human), P10721 [V559D]
[26] = target: MAP4K1 (human) (UniProt Q92918)
[27] = target: MYO3B (human) (UniProt Q8WXR4)
[28] = target: PAK3 (human) (UniProt O75914)
[29] = target: LIMK1 (human) (UniProt P53667)
[30] = target: PRKG2 (human) (UniProt Q13237)
Sequence of PRKG2 (human) (Q13237 whole entry, looked up): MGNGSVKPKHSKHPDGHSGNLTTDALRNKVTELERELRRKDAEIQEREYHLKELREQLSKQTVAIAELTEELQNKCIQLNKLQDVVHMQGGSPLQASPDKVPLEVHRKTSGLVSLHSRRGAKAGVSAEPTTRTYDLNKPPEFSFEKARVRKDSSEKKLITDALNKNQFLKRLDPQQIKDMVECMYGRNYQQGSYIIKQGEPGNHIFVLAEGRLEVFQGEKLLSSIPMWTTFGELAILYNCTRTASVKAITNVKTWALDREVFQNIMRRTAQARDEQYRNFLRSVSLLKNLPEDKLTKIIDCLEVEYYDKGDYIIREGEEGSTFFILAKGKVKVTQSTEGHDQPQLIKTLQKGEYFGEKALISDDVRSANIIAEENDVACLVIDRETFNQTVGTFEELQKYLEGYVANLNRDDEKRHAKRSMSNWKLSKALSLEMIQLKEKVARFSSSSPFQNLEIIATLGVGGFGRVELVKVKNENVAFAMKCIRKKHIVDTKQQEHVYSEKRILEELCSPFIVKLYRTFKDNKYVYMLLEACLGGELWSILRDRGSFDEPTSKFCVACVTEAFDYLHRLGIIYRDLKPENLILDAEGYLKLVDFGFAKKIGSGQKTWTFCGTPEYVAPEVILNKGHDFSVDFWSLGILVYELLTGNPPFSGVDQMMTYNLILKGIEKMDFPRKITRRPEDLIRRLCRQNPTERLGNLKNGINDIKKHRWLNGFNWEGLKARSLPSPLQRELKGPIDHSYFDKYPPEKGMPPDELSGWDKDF

[31] = tested on: KIT (human), P10721 [V559D/T670I]
[32] = target: PIM2 (human) (UniProt Q9P1W9)
[33] = target: CAMK4 (human) (UniProt Q16566)
[34] = target: LYN (human) (UniProt P07948)
[35] = target: HIPK1 (human) (UniProt Q86Z02)
[36] = target: INSRR (human) (UniProt P14616)
Sequence of INSRR (human) (P14616 whole entry, looked up): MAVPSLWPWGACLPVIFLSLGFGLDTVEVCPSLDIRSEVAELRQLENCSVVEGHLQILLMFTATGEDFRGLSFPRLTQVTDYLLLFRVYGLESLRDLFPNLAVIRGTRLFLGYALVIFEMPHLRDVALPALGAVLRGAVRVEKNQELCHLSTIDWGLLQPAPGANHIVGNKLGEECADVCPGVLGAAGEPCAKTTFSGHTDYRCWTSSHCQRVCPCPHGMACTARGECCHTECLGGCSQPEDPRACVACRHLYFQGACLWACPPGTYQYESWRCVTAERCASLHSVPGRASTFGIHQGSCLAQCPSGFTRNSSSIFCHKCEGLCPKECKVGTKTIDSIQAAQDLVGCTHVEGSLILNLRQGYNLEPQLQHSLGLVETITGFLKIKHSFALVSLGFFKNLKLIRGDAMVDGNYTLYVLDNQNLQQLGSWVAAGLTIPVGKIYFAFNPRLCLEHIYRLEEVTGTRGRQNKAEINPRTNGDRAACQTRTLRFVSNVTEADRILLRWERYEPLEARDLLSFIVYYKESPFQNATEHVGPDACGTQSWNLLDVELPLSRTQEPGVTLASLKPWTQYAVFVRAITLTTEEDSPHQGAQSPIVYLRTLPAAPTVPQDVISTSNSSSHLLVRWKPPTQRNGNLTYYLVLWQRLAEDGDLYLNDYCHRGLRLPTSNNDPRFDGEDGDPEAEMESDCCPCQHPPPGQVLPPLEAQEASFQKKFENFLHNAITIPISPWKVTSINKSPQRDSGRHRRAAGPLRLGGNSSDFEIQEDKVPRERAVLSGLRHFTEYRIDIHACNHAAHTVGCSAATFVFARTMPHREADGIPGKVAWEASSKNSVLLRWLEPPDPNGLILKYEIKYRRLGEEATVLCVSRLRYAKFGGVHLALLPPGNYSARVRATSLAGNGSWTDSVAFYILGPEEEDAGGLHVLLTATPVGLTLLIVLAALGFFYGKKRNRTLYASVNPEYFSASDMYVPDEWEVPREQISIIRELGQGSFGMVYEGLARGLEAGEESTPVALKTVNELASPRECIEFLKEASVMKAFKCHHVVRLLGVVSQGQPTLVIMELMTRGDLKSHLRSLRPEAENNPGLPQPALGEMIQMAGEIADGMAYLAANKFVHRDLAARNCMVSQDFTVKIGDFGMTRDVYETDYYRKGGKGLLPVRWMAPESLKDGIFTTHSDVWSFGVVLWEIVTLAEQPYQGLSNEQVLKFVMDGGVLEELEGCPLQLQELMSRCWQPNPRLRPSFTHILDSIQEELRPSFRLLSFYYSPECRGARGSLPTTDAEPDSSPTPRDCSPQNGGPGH

[37] = target: CDK9 (human) (UniProt P50750)
[38] = target: PIP5K1A (human) (UniProt Q99755)
Sequence of PIP5K1A (human) (Q99755 whole entry, looked up): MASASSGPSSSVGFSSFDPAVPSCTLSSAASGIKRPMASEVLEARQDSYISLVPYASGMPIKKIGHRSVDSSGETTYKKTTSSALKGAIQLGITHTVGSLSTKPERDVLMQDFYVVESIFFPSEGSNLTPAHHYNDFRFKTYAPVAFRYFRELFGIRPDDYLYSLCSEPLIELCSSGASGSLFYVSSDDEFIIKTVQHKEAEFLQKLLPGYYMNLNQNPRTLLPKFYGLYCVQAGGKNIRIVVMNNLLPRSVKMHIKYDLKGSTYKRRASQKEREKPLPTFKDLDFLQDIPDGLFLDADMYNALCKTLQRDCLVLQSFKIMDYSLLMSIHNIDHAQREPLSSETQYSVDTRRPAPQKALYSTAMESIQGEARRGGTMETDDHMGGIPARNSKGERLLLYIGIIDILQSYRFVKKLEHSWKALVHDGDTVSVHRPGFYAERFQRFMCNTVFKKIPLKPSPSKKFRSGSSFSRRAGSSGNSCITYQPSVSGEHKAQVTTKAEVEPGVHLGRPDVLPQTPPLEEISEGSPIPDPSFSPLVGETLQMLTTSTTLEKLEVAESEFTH

[39] = target: TNIK (human) (UniProt Q9UKE5)
[40] = target: PDGFRA (human) (UniProt P16234)
[41] = target: CAMK2B (human) (UniProt Q13554)

| Structure (SMILES) | kinase still bound, per cent of control [1] [%] | kinase still bound, per cent of control [2] [%] | kinase still bound, per cent of control [3] [%] | kinase still bound, per cent of control [4] [%] | kinase still bound, per cent of control [5] [%] | kinase still bound, per cent of control [6] [%] | kinase still bound, per cent of control [7] [%] | kinase still bound, per cent of control [8] [%] | kinase still bound, per cent of control [9] [%] | kinase still bound, per cent of control [10] [%] | kinase still bound, per cent of control [11] [%] | kinase still bound, per cent of control [12] [%] | kinase still bound, per cent of control [13] [%] | kinase still bound, per cent of control [14] [%] | kinase still bound, per cent of control [15] [%] | kinase still bound, per cent of control [16] [%] | kinase still bound, per cent of control [17] [%] | kinase still bound, per cent of control [18] [%] | kinase still bound, per cent of control [19] [%] | kinase still bound, per cent of control [20] [%] | other results |
| --- | --- | --- | --- | --- | --- | --- | --- | --- | --- | --- | --- | --- | --- | --- | --- | --- | --- | --- | --- | --- | --- |
| Cc1cnc(-c2cnc(NCCNc3ccc(C#N)cn3)nc2-c2ccc(Cl)cc2Cl)[nH]1 | 100 | 94 | 68 | 100 | 100 | 79 | 100 | 98 | 100 | 1 | 100 | 100 | 100 | 90 | 93 | 100 | 85 | 98 | 100 | 42 | kinase still bound, per cent of control [21]: 92%; kinase still bound, per cent of control [22]: 100%; kinase still bound, per cent of control [23]: 100%; kinase still bound, per cent of control [24]: 100%; kinase still bound, per cent of control [25]: 100%; kinase still bound, per cent of control [26]: 100%; kinase still bound, per cent of control [27]: 100%; kinase still bound, per cent of control [28]: 90%; kinase still bound, per cent of control [29]: 100%; kinase still bound, per cent of control [30]: 100%; kinase still bound, per cent of control [31]: 91%; kinase still bound, per cent of control [32]: 89%; kinase still bound, per cent of control [33]: 100%; kinase still bound, per cent of control [34]: 100%; kinase still bound, per cent of control [35]: 87%; kinase still bound, per cent of control [36]: 100%; kinase still bound, per cent of control [37]: 58%; kinase still bound, per cent of control [38]: 100%; kinase still bound, per cent of control [39]: 96%; kinase still bound, per cent of control [40]: 100% |
| COc1ccc(CNC(=O)Nc2ncc([N+](=O)[O-])s2)cc1 | 100 | 76 | 66 | 100 | 80 | 98 | 100 | 100 | 100 | 11 | 100 | 100 | 100 | 100 | 100 | 100 | 80 | 91 | 100 | 100 | kinase still bound, per cent of control [21]: 97%; kinase still bound, per cent of control [22]: 100%; kinase still bound, per cent of control [23]: 100%; kinase still bound, per cent of control [24]: 100%; kinase still bound, per cent of control [25]: 3.6%; kinase still bound, per cent of control [26]: 98%; kinase still bound, per cent of control [27]: 100%; kinase still bound, per cent of control [28]: 90%; kinase still bound, per cent of control [29]: 100%; kinase still bound, per cent of control [30]: 100%; kinase still bound, per cent of control [31]: 86%; kinase still bound, per cent of control [32]: 76%; kinase still bound, per cent of control [41]: 100%; kinase still bound, per cent of control [34]: 74%; kinase still bound, per cent of control [35]: 58%; kinase still bound, per cent of control [36]: 93%; kinase still bound, per cent of control [37]: 89%; kinase still bound, per cent of control [38]: 70%; kinase still bound, per cent of control [39]: 100%; kinase still bound, per cent of control [40]: 100% |
